Source: ChEMBL document CHEMBL1201862, “PubChem BioAssay data set” (2004)
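Following 48 hours of exposure in 96-well plates, responses at five concentrations were used to interpolate endpoints linearly. Abbreviation: GI50, concentration required for 50% inhibition of growth.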 The source made the active and inactive calls. Cut-off read from the data, not from the text of the source: active = GI50 up to about 1.1 µM and inactive = higher.

Columns and labels:
Experiment in all cases: NCI tumour cell line growth inhibition, 48 h
[1] = system: NCI/ADR-RES
[2] = system: KM12
[3] = system: BT-549
[4] = system: A498
[5] = system: A549
[6] = system: SNB-19
[7] = system: SK-MEL-28
[8] = system: SR
[9] = system: SF-295
[10] = system: Malme-3M
[11] = system: MDA-MB-435
[12] = system: LOX IMVI
[13] = system: HL-60
[14] = system: NCI-H522
[15] = system: HOP-62
[16] = system: NCI-H226
[17] = system: RXF 393
[18] = system: SF-268
[19] = system: Hs-578T

Row | SMILES | GI50 [1] | GI50 [2] | GI50 [3] | GI50 [4] | GI50 [5] | GI50 [6] | GI50 [7] | GI50 [8] | GI50 [9] | GI50 [10] | GI50 [11] | GI50 [12] | GI50 [13] | GI50 [14] | GI50 [15] | GI50 [16] | GI50 [17] | GI50 [18] | GI50 [19]
1 | CCCNc1c(Cl)cc(Cl)c2[nH]c3ccccc3c(=O)c12 | > 100 µM (inactive) | 27.2 µM (inactive) | 75.3 µM (inactive) | 29.7 µM (inactive) | 35.1 µM (inactive) | 18.4 µM (inactive) | > 100 µM (inactive) | 58.3 µM (inactive) | 34.8 µM (inactive) | 43.3 µM (inactive) | 39.9 µM (inactive) | 33.7 µM (inactive) | 16.2 µM (inactive) | 37.1 µM (inactive) | 56.1 µM (inactive) | 38.2 µM (inactive) | – | – | –
2 | CC(C)(C)N1C(=O)[N-]/[N+](=C(/C(c2ccccc2)=[N+]2/[N-]C(=O)N(C(C)(C)C)C2=O)c2ccccc2)C1=O | – | > 100 µM (inactive) | > 100 µM (inactive) | > 100 µM (inactive) | > 100 µM (inactive) | > 100 µM (inactive) | > 100 µM (inactive) | – | > 100 µM (inactive) | – | > 100 µM (inactive) | > 100 µM (inactive) | – | – | – | – | > 100 µM (inactive) | > 100 µM (inactive) | > 100 µM (inactive)
3 | O=C(O)c1ccc(Nc2nc3ccc(C(F)(F)F)cc3nc2-c2ccccc2)cc1 | 28.8 µM (inactive) | > 10 µM (inactive) | – | – | 27 µM (inactive) | 52.2 µM (inactive) | 37.8 µM (inactive) | 28.1 µM (inactive) | 48 µM (inactive) | 33.2 µM (inactive) | 34.9 µM (inactive) | 40.4 µM (inactive) | 20.6 µM (inactive) | 28.6 µM (inactive) | 43 µM (inactive) | 46.1 µM (inactive) | 20.8 µM (inactive) | 40.3 µM (inactive) | 46.3 µM (inactive)
4 | CC(=O)[C@@H]1[C@@H](OC(=O)CCC(C)COC2OC(CO)C(O)C(O)C2O)C[C@H]2[C@@H]3CC=C4C[C@@H](OC5OC(CO)C(OC6OC(C)C(O)C(O)C6O)C(O)C5OC5OC(C)C(O)C(O)C5O)CC[C@]4(C)[C@H]3CC[C@]12C (stereo partly specified) | – | > 100 µM (inactive) | > 100 µM (inactive) | > 100 µM (inactive) | > 100 µM (inactive) | > 100 µM (inactive) | > 100 µM (inactive) | > 100 µM (inactive) | > 100 µM (inactive) | 52.5 µM (inactive) | > 100 µM (inactive) | > 100 µM (inactive) | – | 35.2 µM (inactive) | > 100 µM (inactive) | – | > 100 µM (inactive) | > 100 µM (inactive) | –
5 | O=C1OCCC1C(O)C1c2ccccc2-c2ccccc21 (stereo unspecified) | – | > 100 µM (inactive) | – | > 100 µM (inactive) | > 100 µM (inactive) | > 100 µM (inactive) | > 100 µM (inactive) | > 100 µM (inactive) | > 100 µM (inactive) | > 100 µM (inactive) | – | – | > 100 µM (inactive) | > 100 µM (inactive) | > 100 µM (inactive) | > 100 µM (inactive) | – | > 100 µM (inactive) | –
6 | CCOC(=O)c1ccc(/N=C2\Sc3nc4ccccc4n3\C2=N\c2ccc(C(=O)OCC)cc2)cc1 | 22.1 µM (inactive) | 20.1 µM (inactive) | – | 34.3 µM (inactive) | 25.2 µM (inactive) | 12.1 µM (inactive) | 39.2 µM (inactive) | – | 16.2 µM (inactive) | 22.7 µM (inactive) | 59.2 µM (inactive) | 14.2 µM (inactive) | > 100 µM (inactive) | 24.7 µM (inactive) | 21.5 µM (inactive) | 29.2 µM (inactive) | 28.8 µM (inactive) | 22.3 µM (inactive) | 22.6 µM (inactive)
7 | CCCCc1ccc(N2C(=O)c3cccnc3S2(=O)=O)cc1 | > 100 µM (inactive) | > 100 µM (inactive) | > 100 µM (inactive) | > 100 µM (inactive) | > 100 µM (inactive) | > 100 µM (inactive) | > 100 µM (inactive) | > 100 µM (inactive) | > 100 µM (inactive) | > 100 µM (inactive) | > 100 µM (inactive) | – | > 100 µM (inactive) | > 100 µM (inactive) | > 100 µM (inactive) | > 100 µM (inactive) | > 100 µM (inactive) | > 100 µM (inactive) | –
8 | CC(=O)O[C@@H]1O[Si](C(C)(C)C)(C(C)(C)C)[C@H](C)[C@H]1C | > 100 µM (inactive) | 30.5 µM (inactive) | > 100 µM (inactive) | > 100 µM (inactive) | 41 µM (inactive) | > 100 µM (inactive) | > 100 µM (inactive) | > 100 µM (inactive) | 90.8 µM (inactive) | 7.91 µM (inactive) | 94.8 µM (inactive) | 25.8 µM (inactive) | 21.9 µM (inactive) | 56.6 µM (inactive) | > 100 µM (inactive) | > 100 µM (inactive) | – | – | –
9 | O=[N+]([O-])/C=C\c1c[nH]c2ccc(OCc3ccccc3)cc12 | 19.3 µM (inactive) | 2.09 µM (inactive) | – | 10.5 µM (inactive) | 4.31 µM (inactive) | 4.89 µM (inactive) | 3.03 µM (inactive) | 2.03 µM (inactive) | 10.6 µM (inactive) | 11 µM (inactive) | 2.16 µM (inactive) | 1.86 µM (inactive) | 2.62 µM (inactive) | 10.2 µM (inactive) | 12.9 µM (inactive) | 2.18 µM (inactive) | 2.58 µM (inactive) | 4.37 µM (inactive) | 3.57 µM (inactive)
10 | O=Cc1c[nH]c2c(=O)[nH]cnc12 | – | > 100 µM (inactive) | – | – | > 100 µM (inactive) | > 100 µM (inactive) | > 100 µM (inactive) | > 100 µM (inactive) | > 100 µM (inactive) | > 100 µM (inactive) | – | > 100 µM (inactive) | > 100 µM (inactive) | > 100 µM (inactive) | > 100 µM (inactive) | – | > 100 µM (inactive) | > 100 µM (inactive) | –
11 | O=C([O-])C1([n+]2c(-c3ccccc3)cc(-c3ccccc3)cc2-c2ccccc2)CC1 | > 100 µM (inactive) | – | – | > 100 µM (inactive) | > 100 µM (inactive) | 43.2 µM (inactive) | > 100 µM (inactive) | 76.2 µM (inactive) | > 100 µM (inactive) | 34.5 µM (inactive) | 19.2 µM (inactive) | 82.6 µM (inactive) | 21.8 µM (inactive) | 54.7 µM (inactive) | > 100 µM (inactive) | > 100 µM (inactive) | > 100 µM (inactive) | 42.3 µM (inactive) | 56.8 µM (inactive)
12 | c1cc(NC2=NCCO2)c2c(c1)OCO2 | > 100 µM (inactive) | 80.2 µM (inactive) | – | > 100 µM (inactive) | > 100 µM (inactive) | > 100 µM (inactive) | > 100 µM (inactive) | > 100 µM (inactive) | > 100 µM (inactive) | > 100 µM (inactive) | > 100 µM (inactive) | > 100 µM (inactive) | > 100 µM (inactive) | > 100 µM (inactive) | > 100 µM (inactive) | > 100 µM (inactive) | > 100 µM (inactive) | > 100 µM (inactive) | > 100 µM (inactive)
13 | COc1ccc(/C=C2\CCC(C)C3=C2N=c2s/c(=C/c4cccc(Br)c4)c(=O)n2C3c2ccc(OC)c(OC)c2)cc1OC (stereo unspecified) | – | > 100 µM (inactive) | – | > 100 µM (inactive) | > 100 µM (inactive) | > 100 µM (inactive) | > 100 µM (inactive) | > 100 µM (inactive) | – | – | > 100 µM (inactive) | > 100 µM (inactive) | > 100 µM (inactive) | – | > 100 µM (inactive) | – | > 100 µM (inactive) | > 100 µM (inactive) | > 100 µM (inactive)
14 | CCC(C)N1CN(c2ccccc2)C2(CCN(CCCSc3ccc(F)cc3)CC2)C1=O (stereo unspecified) | 3.05 µM (inactive) | 3.92 µM (inactive) | 1.66 µM (inactive) | – | 3.94 µM (inactive) | 5.52 µM (inactive) | 11.6 µM (inactive) | 3.32 µM (inactive) | 2.35 µM (inactive) | 4.48 µM (inactive) | 3.05 µM (inactive) | 3.05 µM (inactive) | 3.79 µM (inactive) | 5.97 µM (inactive) | 2.11 µM (inactive) | 4.34 µM (inactive) | 2.84 µM (inactive) | 6.75 µM (inactive) | –
15 | CCN1CCN=C2c3cc(OC)ccc3Nc3c([N+](=O)[O-])ccc1c32 | – | 0.713 µM (active) | – | – | 0.667 µM (active) | – | 2.32 µM (inactive) | 0.244 µM (active) | 1.61 µM (inactive) | 0.841 µM (active) | 1.01 µM (active) | – | 0.516 µM (active) | – | 0.634 µM (active) | – | 0.556 µM (active) | 0.443 µM (active) | –
16 | Oc1nc2nc3ccccc3nc2nc1O | > 100 µM (inactive) | > 100 µM (inactive) | – | – | > 100 µM (inactive) | > 100 µM (inactive) | > 100 µM (inactive) | > 100 µM (inactive) | > 100 µM (inactive) | > 100 µM (inactive) | > 100 µM (inactive) | > 100 µM (inactive) | > 100 µM (inactive) | > 100 µM (inactive) | > 100 µM (inactive) | > 100 µM (inactive) | > 100 µM (inactive) | > 100 µM (inactive) | > 100 µM (inactive)
17 | CC#CC1/C(=C\C(=O)OC)CCCC1O (stereo unspecified) | – | > 100 µM (inactive) | – | > 100 µM (inactive) | > 100 µM (inactive) | > 100 µM (inactive) | > 100 µM (inactive) | > 100 µM (inactive) | > 100 µM (inactive) | > 100 µM (inactive) | – | – | > 100 µM (inactive) | > 100 µM (inactive) | > 100 µM (inactive) | > 100 µM (inactive) | > 100 µM (inactive) | > 100 µM (inactive) | –
